Patent US10130634B2, “Therapeutic agent for ophthalmic disease” (MITSUBISHI TANABE PHARMA CORPORATION, priority 2013, dated 2018)

System: choroidal neovascularization (CNV)
Assay: laser irradiation-induced choroidal neovascularization mouse model (CNV model)
Format: in vivo, male C57BL/6J mouse
Conditions: oral 20 mg/kg, once on laser-induction day then twice per day; compared to vehicle (0.5% hydroxypropylmethylcellulose) oral group; t-test p<0.05; FIG. 1
Method: As a result, VEGF is produced, and a new blood vessel is developed. Therefore, the CNV model is an experimental model showing the efficacy on a disease associated with ocular angiogenesis via VEGF.
Using (2S)-[4-(carboxymethyl)thiazol-2-ylthio]-N-{[4-(3,4-dichlorobenzyl)morpholin-2-yl]methyl}acetamide hydrobromide as a test compound, the following experiment was performed.
Laser was irradiated (6 spot irradiation) on one eye of male C57BL/6J mouse (7-week-old) to experimentally induce CNV.
The mouse was intramuscularly administered (1 mL/kg) with a ketamine hydrochloride/xylazine hydrochloride (1:1, v/v) mixed solution into the thigh and, after systemic anesthesia, mydriasis was induced with mydriatic eye drops, and laser irradiation (wavelength 532 nm, spot size 50 μm, irradiation time 0.1 second, laser output 120 mW) was performed at 6 points while avoiding thick capillary in the retina. […]
At 7 days from the laser irradiation, under systemic anesthesia by intramuscular administration (1 mL/kg) of a ketamine hydrochloride/xylazine hydrochloride (1:1, v/v) mixed solution into the thigh, a 4% FITC-dextran solution was administered at 0.5 mL/animal from the tail vein. […] Using a confocal microscope (OLYMPUS FV-1000D; magnification: ×20, number of pixels: 512 pixel×512 pixel), CNV site in a flat mount specimen was photographed, and measured using an image analysis software (NIH ImageJ). […]

Br.O=C(O)Cc1csc(SCC(=O)NC[C@H]2CN(Cc3ccc(Cl)c(Cl)c3)CCO2)n1 [test compound, (2S)-[4-(carboxymethyl)thiazol-2-ylthio]-N-{[4-(3,4-dichlorobenzyl)morpholin-2-yl]methyl}acetamide hydrobromide]
CNV area after 7 days from laser irradiation (CNV suppressive effect): significant CNV suppressive effect
